# Experimental data reported in US10342766B2, “6-shogaol derivatives and activities thereof” (North Carolina Agricultural and Technical State University, priority 2017, dated 2019).
# Values joined by “and” are separate entries in the source; they are usually repeats but may differ in a detail not shown here. Identical values can stand only once.
# Columns and labels:
# [1] = system: Nrf2; assay: Nrf2 reporter activity by Tg(gstp1:GFP) fluorescence in transgenic zebrafish embryos; format: in vivo; conditions: 5 μM, 24-hour treatment from 1 dpf to 2 dpf; olfactory epithelia; relative to vehicle (DMSO = 1.00)
# Procedure: Zebrafish AB transgenic strains Tg(gstp1:GFP) were maintained in a Pentair Aquatic Ecosystem (Apopka, Fla., United States of America) fish housing unit with 14 h light/10 h dark cycle (see Tsujita, T., Li, L., Nakajima, H., Iwamoto, N., Nakajima-Takagi, Y., Ohashi, K., Kawakami, K., Kumagai, Y., Freeman, B. A., Yamamoto, M., and Kobayashi, M. (2011) “Nitro-fatty acids and cyclopentenone prostaglandins share strategies to activate the Keap1-Nrf2 system: a study using green fluorescent protein transgenic zebrafish.” Genes Cells 16, 46-57). The fish embryos were maintained at 28.5° C. in 0.3× Danieau's solution (19.3 mM NaCl, 0.23 mM KCl, 0.13 mM MgSO4, 0.2 mM Ca(NO3)2, 1.7 mM HEPES, pH 7.0) containing 30 μg/ml phenylthiourea (PTU) to inhibit pigmentation. Tg(gstp1:GFP) cross with AB wild-type strain fluorescence embryos were used for the experiment. Zebrafish embryos were washed, dechorionated and anaesthetized before observations, and fluorescence imaging for analysis.
# Transgenic zebrafish embryos at 1 day-post-fertilization (dpf) were dechorionated and placed in Petri dishes containing different chemicals diluted in 0.3× Danieau's solution containing PTU. The chemical stock was dissolved in DMSO at 5 mM concentration.
# An Olympus MVX10 Fluorescence Macroscope (Olympus, Center Valley, Pa., United States of America) equipped with a Hamamatsu C9300-221 high-speed digital CCD camera (Hamamatsu City, Japan) was used for fluorescence microscopy. Tg(gstp1:GFP) fluorescent embryos were anaesthetized in tricaine and imaged at 2 dpf. MetaMorph Basic software (Olympus, Center Valley, Pa., United States of America) was used for image acquisition and analysis.
# Quantification of Nrf2 Reporter Activity by Tg(gstp1:
# GFP) Fluoresence in Zebrafish Model. The fluorescence intensity of the olfactory neural epithelia was quantitated using MetaMorph Basic software. In brief, GFP expression in the olfactory regions of Tg(gstp1:GFP) embryos treated with various chemicals was measured after 24-hour treatment from 1 dpf to 2 dpf. The GFP induction was detectable by fluorescence signal at the area of the olfactory epithelia in the anterior of the head region, the intensity was measured using an area of a circle of 60 pixel diameter of the fluorescence olfactory epithelia subtracted by a background non-fluorescence area next to the zebrafish embryo. Both the left and right olfactory epithelia were measured to give an average fluorescence value. The values are an average of measurements from at least 10 embryos.
# [2] = Formation of cysteine conjugates in mice (urine, LC/MS); format: in vivo, mouse; conditions: oral gavage 200 mg/kg, urine collected in 24 h
# Procedure: LC/MS analysis was carried out with a Thermo-Finnigan Spectra System, which consisted of an Accela high speed MS pump, an Accela refrigerated autosampler, and an LCQ Fleet ion trap mass detector (Thermo Electron, San Jose, Calif., United States of America) incorporated with an electrospray ionization (ESI) interface. A Gemini-NX C18 column (150 mm×4.6 mm i.d., 5 μm; Phenomenex, Torrance, Calif., United States of America) was used for separation at a flow rate of 0.3 mL/min. The column was eluted with 100% A (5% aqueous methanol with 0.2% formic acid) for 1 min, followed by linear increases in B (95% aqueous methanol with 0.2% formic acid) to 55% from 1 to 4 min, to 85% from 4 to 25 min, then to 100% B from 25 to 30 min, and then with 100% B from 30 to 35 min. The column was then re-equilibrated with 100% A for 5 min. The LC eluent was introduced into the ESI interface. The positive ion polarity mode was set for the ESI source with the voltage on the ESI interface maintained at approximately 4.6 kV. Nitrogen gas was used as the sheath gas and auxiliary gas. […] The mass range was measured from 100 to 800 m/z. […]
# Enzymatic deconjugation of mouse urine was performed as described previously with slight modifications. […] The resulting suspension was centrifuged at 17,000 g for 5 min, and 10 μL of supernatant was analyzed directly by LC/MS.
smiles,measurement,setting,value
CCCCCCCC(=O)/C=C/c1ccc(O)c(O)c1 [Compound 27],"Ratio/CTL, Tg(gstp1:GFP) fluorescence signal",[1],9.19 and 9.19 ± 0.12
same,Cysteine conjugates found in mouse urine,[2],"conjugate 36 and its reduced form 36a, three additional conjugates 37, 37a, and 37b"
